Data taken from patent publication US12246095B2, “Oral dosage forms comprising a hops extract” (The New Zealand Institute for Plant and Food Research …, priority 2018, dated 2025).
Converted amounts (≈) assume the structure as drawn.

Tested on: Hutu80 enteroendocrine cells
Assay: Intracellular calcium in Hutu80 enteroendocrine cells as marker of Tas2R activation
Format: cell-based, human
Conditions: for EC 50: Hutu-80, change in intracellular calcium at 5 min, doses 200 to 0.2 μM, Pacific Gem extract and purified acids
Protocol: The capacity for hops extracts to activate bitter taste receptors was assessed using intracellular calcium concentrations [Ca2+]i as a marker of both Tas2R activation and appetite suppressing hormone release. A screening assay was carried out to compare the effects of high alpha acid and low alpha acid hops extracts on intracellular calcium in Hutu80 enteroendocrine cells. The acid composition of the high alpha acid hops was alpha acid (13.9%), beta acid (7.4%). The acid composition of the low alpha acid hops was alpha acid (2.7%) beta acid (5.0%).
An EC50 dose response showing the relative change in intracellular calcium in Hutu80 enteroendocrine cells at 5 min following the addition of either a high alpha acid (Pacific Gem, 13.9%) or low alpha acid (Wai-iti, 2.7%) hops extract is shown in FIG. 1 and Table 1.
Activation of human TAS2Rs receptors was measured by monitoring variations in intracellular Ca^2+ concentrations ([Ca^2+]i) using a Flurostar Omega (BMG LABTECH, Germany) (excitation 485 nm/emission 520 nm).
Hutu-80 cells (Cat #HTB-40, ATCC Manassas, Virginia) were seeded in supplemented MEM (Cat #11095-080, Thermo Fisher, Walthan, Massachusetts) into Poly-Lysin-coated 96-well black wall, clear bottom plates (Cat #356640, Corning Inc. New York) at a density of 3.5×10^5 cells/ml, 100 μl/wel, cultured overnight and then loaded with the Ca^2+-sensitive fluorescent dye Fluo 4-AM (Cat #F14201, Thermo Fisher, Walthan, Massachusetts), following suppliers guidelines. […]
Compounds to test were prepared in DMSO (Cat #D8418, Sigma, St. Louis, Missouri) and transferred onto the cells immediately prior to commencing of the assay measurements. To obtain a baseline, fluorescence signals (excitation 485 nm/emission 520 nm) were measured immediately before the addition of compounds on the cells.
The change in intracellular calcium in Hutu80 enteroendocrine cells was measured at 5 min following the addition of purified hops acids at doses of 200, 63.2, 20, 6.32, 2, 0.632, 0.2 and 0 μM.

Row | EC 50 [µg/mL] | SMILES | stimulating bitter taste receptor (Tas2R) signalling in human enteroendocrine cells (Hutu80, intracellular calcium)
1 | 1.153 (≈ 3.31 µM) | CC(C)=CCC1=C(O)C(O)(CC=C(C)C)C(=O)C(C(=O)C(C)C)=C1O (stereo not drawn) [Cohumulone, cohumulone] | activity at the lowest concentration
2 | 12.72 (≈ 31.8 µM) | CC(C)=CCC1=C(O)C(C(=O)C(C)C)=C(O)C(CC=C(C)C)(CC=C(C)C)C1=O [Colupulone, colupulone] | 
